Results as given in article PMC6399351, “Cationic Intrinsically Disordered Antimicrobial Peptides (CIDAMPs) Represent a New Paradigm of Innate Defense with a Potential for Novel Anti-Infectives” (Scientific Reports, 2019).
“And” between values parts separate entries of the source, which are not always exact repeats. Equal values may be shown once. Read-outs that look alike come from different tables or passages of the source. Square brackets hold non-standard residues; d marks the D form. Ends that are not written are not given here. Peptide text beside a SMILES is read from it. * marks the point of attachment. Palmitoyl = CCCCCCCCCCCCCCCC(=O)*; Myristoyl = CCCCCCCCCCCCCC(=O)*; dOrn = NCCC[C@@H](N)C(=O)O

Assays:
S. aureus ATCC 6538 = details: CFU assay, 10 mM NaP
P. aeruginosa ATCC 10145 = details: CFU assay, 10 mM NaP, pH 5.5, 0.25% glucose

Row | Compound | LD90 (S. aureus ATCC 6538; pH 5.5, 0.25% glucose) | LD100 (S. aureus ATCC 6538; pH 5.5, 0.25% glucose) | LD90 (P. aeruginosa ATCC 10145) | LD100 (P. aeruginosa ATCC 10145) | LD90 (S. aureus ATCC 6538; pH 7.3, 1% TSB) | LD100 (S. aureus ATCC 6538; pH 7.3, 1% TSB)
1 | CCCCCCCCCCCCCCCC(=O)NCC(=O)N[C@H](CCCNC(=N)N)C(=O)N[C@H](CCCNC(=N)N)C(=O)NCC(=O)NCC(=O)N[C@H](CCCNC(=N)N)C(=O)NCC(=O)NCC(=O)N[C@H](CCCNC(=N)N)C(=O)O [(D)-Pal-GR9] (Palmitoyl-G[dR][dR]GG[dR]GG[dR]-OH; C-terminus assumed) | 0.15 µg/mL | 2.35 µg/mL | 0.038 µg/mL | 0.59 µg/mL | – | –
2 | N=C(N)NCCC[C@H](NC(=O)[C@H](CC(=O)O)NC(=O)[C@H](CS)NC(=O)[C@H](CO)NC(=O)[C@H](CC(N)=O)NC(=O)[C@H](CO)NC(=O)[C@H](CCCNC(=N)N)NC(=O)[C@H](CCC(N)=O)NC(=O)[C@H](CCCNC(=N)N)NC(=O)[C@H](CCCNC(=N)N)NC(=O)[C@H](CS)NC(=O)[C@H](CCC(N)=O)NC(=O)[C@H](Cc1c[nH]cn1)NC(=O)[C@H](CO)NC(=O)[C@H](CCCNC(=N)N)NC(=O)[C@H](Cc1ccccc1)NC(=O)[C@H](Cc1c[nH]cn1)NC(=O)[C@H](CCCNC(=N)N)NC(=O)[C@H](Cc1c[nH]cn1)NC(=O)[C@H](Cc1c[nH]cn1)NC(=O)[C@@H](N)CO)C(=O)O [LCE-3C55-75] (H-SHHRHFRSHQCRRQRSNSCDR-OH; N-terminus and C-terminus assumed) | 0.59 µg/mL | > 150 µg/mL | – | – | – | –
3 | CCCCCCCCCCCCCC(=O)NCC(=O)N[C@@H](CCCNC(=N)N)C(=O)N[C@@H](CCCNC(=N)N)C(=O)NCC(=O)N[C@@H](CO)C(=O)NCC(=O)N[C@@H](CC(C)C)C(=O)NCC(=O)N[C@@H](CCCNC(=N)N)C(=O)N[C@@H](CO)C(=O)N[C@@H](CO)C(=O)N[C@@H](CO)C(=O)N[C@@H](CCCNC(=N)N)C(=O)NCC(=O)N[C@@H](CCC(N)=O)C(=O)N[C@@H](CCCNC(=N)N)C(=O)NCC(=O)N[C@@H](CO)C(=O)NCC(=O)N[C@@H](CO)C(=O)NCC(=O)N[C@@H](CCCNC(=N)N)C(=O)O [Myr-HR 1-18-HR] (Myristoyl-GRRGSGLGRSSSRGQRGSGSGR-OH; C-terminus assumed) | – | – | – | – | 18.75 µg/mL | 75 µg/mL
4 | CCCCCCCCCCCCCC(=O)NCC(=O)N[C@@H](CCCNC(=N)N)C(=O)N[C@@H](Cc1c[nH]cn1)C(=O)NCC(=O)N[C@@H](CO)C(=O)NCC(=O)N[C@@H](CC(C)C)C(=O)NCC(=O)N[C@@H](Cc1c[nH]cn1)C(=O)N[C@@H](CO)C(=O)N[C@@H](CO)C(=O)N[C@@H](CO)C(=O)N[C@@H](Cc1c[nH]cn1)C(=O)NCC(=O)N[C@@H](CCC(N)=O)C(=O)N[C@@H](Cc1c[nH]cn1)C(=O)NCC(=O)N[C@@H](CO)C(=O)NCC(=O)N[C@@H](CO)C(=O)NCC(=O)N[C@@H](CCCNC(=N)N)C(=O)O [Myr-HR 1-18] (Myristoyl-GRHGSGLGHSSSHGQHGSGSGR-OH; C-terminus assumed) | 9.38 µg/mL | 75 µg/mL | 0.075 µg/mL | 0.3 µg/mL | 18.75 µg/mL | 75 µg/mL
5 | CCCCCCCCCCCCCCCC(=O)NCC(=O)N[C@H](CCCCN)C(=O)NCC(=O)N[C@H](CCCCN)C(=O)O [Pal-(D)-GK4] (Palmitoyl-G[dK]G[dK]-OH; C-terminus assumed) | 4.7 µg/mL | 9.375 µg/mL | 1.18 µg/mL | 4.7 µg/mL | – | –
6 | CCCCCCCCCCCCCCCC(=O)NCC(=O)N[C@H](CCCN)C(=O)NCC(=O)N[C@H](CCCN)C(=O)O [Pal-(D)-GO4] (Palmitoyl-G[dOrn]G[dOrn]-OH; C-terminus assumed) | 9.38 µg/mL | 18.75 µg/mL | 1.18 µg/mL | 9.38 µg/mL | – | –
7 | CCCCCCCCCCCCCCCC(=O)NCC(=O)N[C@H](CCCNC(=N)N)C(=O)NCC(=O)N[C@H](CCCNC(=N)N)C(=O)O [Pal-(D)-GR4] (Palmitoyl-G[dR]G[dR]-OH; C-terminus assumed) | 18.75 µg/mL | 37.5 µg/mL | 18.75 µg/mL | 150 µg/mL | – | –
8 | CCCCCCCCCCCCCCCC(=O)SC[C@H](NC(=O)[C@H](CO)NC(=O)[C@H](CO)NC(=O)[C@H](CO)NC(=O)[C@H](CCC(N)=O)NC(=O)CNC(=O)[C@H](CO)NC(=O)[C@@H](NC(=O)[C@H](CO)NC(=O)CNC(=O)[C@H](Cc1c[nH]cn1)NC(=O)[C@H](CCC(N)=O)NC(=O)CNC(=O)[C@H](Cc1c[nH]cn1)NC(=O)[C@@H](NC(=O)[C@H](CO)NC(=O)[C@H](CO)NC(=O)[C@H](Cc1c[nH]cn1)NC(=O)CNC(=O)[C@H](CO)NC(=O)[C@H](CO)NC(=O)[C@H](CO)NC(=O)CNC(=O)[C@H](Cc1c[nH]cn1)NC(=O)[C@H](CCC(N)=O)NC(=O)CN)[C@@H](C)O)[C@@H](C)O)C(N)=O [S-Pal-HRNR598–623] (H-GQHGSSSGHSSTHGQHGSTSGQSSSC(Palmitoyl)-NH2; N-terminus assumed) | 2.35 µg/mL | > 150 µg/mL | – | – | – | –
9 | CCCCCCCCCCCCCCCC(=O)SC[C@H](N)C(=O)NCC(=O)N[C@@H](CCC(N)=O)C(=O)N[C@@H](Cc1c[nH]cn1)C(=O)NCC(=O)N[C@@H](C)C(=O)N[C@H](C(=O)N[C@@H](CO)C(=O)NCC(=O)N[C@@H](CCC(N)=O)C(=O)N[C@@H](CO)C(=O)N[C@@H](CO)C(=O)N[C@@H](CO)C(=O)N[C@@H](Cc1c[nH]cn1)C(=O)NCC(=O)N[C@@H](CCC(N)=O)C(=O)N[C@@H](Cc1c[nH]cn1)C(=O)NCC(=O)N[C@@H](CO)C(=O)NCC(=O)N[C@@H](CO)C(=O)N[C@@H](CO)C(=O)N[C@@H](CCC(N)=O)C(=O)N[C@@H](CO)C(=O)N[C@@H](CO)C(=O)N[C@@H](CCCNC(=N)N)C(=O)O)[C@@H](C)O [S-Pal-HRNR623–648] (H-C(Palmitoyl)GQHGATSGQSSSHGQHGSGSSQSSR-OH; N-terminus and C-terminus assumed) | 2.35 µg/mL | > 150 µg/mL | – | – | – | –
10 | CCCCCCCCCCCCCCCC(=O)SC[C@H](N)C(=O)NCC(=O)N[C@@H](CCC(N)=O)C(=O)N[C@@H](Cc1c[nH]cn1)C(=O)NCC(=O)N[C@@H](C)C(=O)N[C@H](C(=O)N[C@@H](CO)C(=O)N[C@@H](CO)C(=O)NCC(=O)N[C@@H](CCC(N)=O)C(=O)N[C@@H](CO)C(=O)N[C@@H](CO)C(=O)N[C@@H](CO)C(=O)N[C@@H](Cc1c[nH]cn1)C(=O)NCC(=O)N[C@@H](CCC(N)=O)C(=O)N[C@@H](Cc1c[nH]cn1)C(=O)NCC(=O)N[C@@H](CO)C(=O)NCC(=O)N[C@@H](CO)C(=O)N[C@@H](CO)C(=O)N[C@@H](CCC(N)=O)C(=O)N[C@@H](CO)C(=O)N[C@@H](CO)C(=O)NCC(=O)N[C@@H](Cc1ccc(O)cc1)C(=O)NCC(=O)N[C@@H](CCCNC(=N)N)C(=O)O)[C@@H](C)O [S-Pal-HRNR1089–1117] (H-C(Palmitoyl)GQHGATSSGQSSSHGQHGSGSSQSSGYGR-OH; N-terminus and C-terminus assumed) | – | > 150 µg/mL | – | – | – | –
11 | CCCCCCCCCCCCCCCC(=O)SC[C@H](NC(=O)CNC(=O)[C@H](CO)NC(=O)[C@H](CO)NC(=O)[C@H](CCC(N)=O)NC(=O)[C@H](Cc1c[nH]c2ccccc12)NC(=O)[C@H](CO)NC(=O)[C@H](CO)NC(=O)[C@H](CO)NC(=O)[C@H](CCC(=O)O)NC(=O)[C@H](Cc1c[nH]cn1)NC(=O)[C@H](Cc1c[nH]cn1)NC(=O)CNC(=O)[C@H](Cc1ccccc1)NC(=O)CNC(=O)[C@H](CO)NC(=O)[C@H](CO)NC(=O)[C@H](CCC(N)=O)NC(=O)CNC(=O)[C@H](CO)NC(=O)CNC(=O)[C@H](CO)NC(=O)CNC(=O)[C@H](Cc1c[nH]cn1)NC(=O)[C@H](CCCNC(=N)N)NC(=O)CN)C(N)=O [S-Pal-HRNR1389–1414] (H-GRHGSGSGQSSGFGHHESSSWQSSGC(Palmitoyl)-NH2; N-terminus assumed) | 1.18 µg/mL | 18.8 µg/mL | – | – | – | –
12 | CCCCCCCCCCCCCCCC(=O)SC[C@H](NC(=O)[C@H](Cc1ccccc1)NC(=O)[C@H](Cc1c[nH]cn1)NC(=O)CNC(=O)[C@H](CO)NC(=O)CNC(=O)[C@H](CO)NC(=O)CNC(=O)[C@H](Cc1c[nH]cn1)NC(=O)[C@H](CCC(N)=O)NC(=O)[C@H](CO)NC(=O)[C@H](Cc1ccc(O)cc1)NC(=O)[C@H](C)NC(=O)[C@H](CO)NC(=O)[C@H](CO)NC(=O)[C@H](Cc1c[nH]cn1)NC(=O)CNC(=O)[C@H](CO)NC(=O)CNC(=O)[C@H](CO)NC(=O)[C@H](CCC(=O)O)NC(=O)[C@H](Cc1c[nH]cn1)NC(=O)[C@H](CCC(N)=O)NC(=O)CNC(=O)[C@H](Cc1ccccc1)NC(=O)[C@@H](NC(=O)[C@H](CO)NC(=O)[C@H](CO)NC(=O)[C@H](Cc1c[nH]cn1)NC(=O)CNC(=O)[C@@H](N)CO)C(C)C)C(N)=O [S-Pal-HRNR1748–1778] (H-SGHSSVFGQHESGSGHSSAYSQHGSGSGHFC(Palmitoyl)-NH2; N-terminus assumed) | 0.3 µg/mL | 9.38 µg/mL | – | – | – | –
13 | CCCCCCCCCCCCCCCC(=O)SC[C@H](NC(=O)[C@H](CO)NC(=O)[C@H](CO)NC(=O)[C@H](CO)NC(=O)[C@H](CCC(N)=O)NC(=O)CNC(=O)[C@H](CO)NC(=O)[C@H](C)NC(=O)[C@H](CO)NC(=O)CNC(=O)[C@H](Cc1c[nH]cn1)NC(=O)[C@H](CCC(N)=O)NC(=O)CNC(=O)[C@H](Cc1c[nH]cn1)NC(=O)[C@@H](NC(=O)[C@H](CO)NC(=O)[C@H](CO)NC(=O)[C@H](Cc1c[nH]cn1)NC(=O)CNC(=O)[C@H](CO)NC(=O)[C@H](CO)NC(=O)[C@H](CO)NC(=O)CNC(=O)[C@H](Cc1c[nH]cn1)NC(=O)[C@H](CCC(N)=O)NC(=O)CN)[C@@H](C)O)C(N)=O [S-Pal-HRNR2004–2029] (H-GQHGSSSGHSSTHGQHGSASGQSSSC(Palmitoyl)-NH2; N-terminus assumed) | 0.59 µg/mL | > 150 µg/mL and 75 µg/mL | – | – | – | –
14 | GRRGGGGGRGGGRGGRGGGGGR [HR 1-18,G+R] | > 300 µg/mL | > 300 µg/mL | – | – | – | –
15 | Pal-SHHRHFRSHQCRRQRS NSCDR [Pal-LCE-3C55-75] | 0.15 µg/mL | 0.59 µg/mL | – | – | – | –
16 | SHHRPRLFHRRRH [LCE-2B74-86] | 1.18 µg/mL | > 150 µg/mL | – | – | – | –
